Results reported in patent publication US10582709B2, “Butyrolactones as herbicides” (FMC Corporation, priority 2015, dated 2020).

System: ragweed (common ragweed, Ambrosia elatior)
Assay: Test A preemergence, ragweed
Assay type: in vivo
Conditions: 125 g ai/ha, visual rating after approx. 10 d, 0 to 100 scale, 0 no effect, 100 complete control
Description: (§1) Seeds of plant species selected from barnyardgrass (Echinochloa crus-galli), crabgrass (large crabgrass, Digitaria sanguinalis), kochia (Kochia scoparia), ragweed (common ragweed, Ambrosia elatior), morningglory (Ipomoea spp.), velvetleaf (Abutilon theophrasti), ryegrass, Italian (Italian ryegrass, Lolium multiflorum), foxtail, giant (giant foxtail, Setaria faberii), wheat (Triticum aestivum), corn (Zea mays), and pigweed (Amaranthus retroflexus), were planted into a blend of loam soil and sand and treated preemergence with a directed soil spray using test chemicals formulated in a non-phytotoxic solvent mixture which included a surfactant. At the same time, plants selected from these crop and weed species and also blackgrass (Alopecurus myosuroides), and galium (catchweed bedstraw, Galium aparine), were planted in pots containing the same blend of loam soil and sand and treated with postemergence applications of test chemicals formulated in the same manner. Plants ranged in height from 2 to 10 cm and were in the one- to two-leaf stage for the postemergence treatment. Treated plants and untreated controls were maintained in a greenhouse for approximately 10 d, after which time all treated plants were compared to untreated controls and visually evaluated for injury. Plant response ratings, summarized in Table A, are based on a 0 to 100 scale where 0 is no effect and 100 is complete control. A dash (-) response means no test result.

Compound	Plant response rating, Ragweed
O=C(Nc1ccccc1C(F)(F)F)C1C(=O)OCC1c1cccc(C(F)(F)F)c1 (racemic) [Compound 14]	0

Same assay, conditions: 500 g ai/ha, visual rating after approx. 10 d, 0 to 100 scale, 0 no effect, 100 complete control

Compound	Plant response rating, Ragweed
O=C(Nc1ccccc1C(F)(F)F)C1C(=O)OCC1c1cccc(C(F)(F)F)c1 (racemic) [Compound 14]	0

System: blackgrass (Alopecurus myosuroides)
Assay: Test A postemergence, blackgrass
Assay type: in vivo
Conditions: 125 g ai/ha, visual rating after approx. 10 d, 0 to 100 scale, 0 no effect, 100 complete control
Description: as §1

Compound	Plant response rating, Blackgrass
O=C(Nc1ccccc1C(F)(F)F)C1C(=O)OCC1c1cccc(C(F)(F)F)c1 (racemic) [Compound 14]	0

Same assay, conditions: 500 g ai/ha, visual rating after approx. 10 d, 0 to 100 scale, 0 no effect, 100 complete control

Compound	Plant response rating, Blackgrass
O=C(Nc1ccccc1C(F)(F)F)C1C(=O)OCC1c1cccc(C(F)(F)F)c1 (racemic) [Compound 14]	30

System: galium (catchweed bedstraw, Galium aparine)
Assay: Test A postemergence, galium
Assay type: in vivo
Conditions: 125 g ai/ha, visual rating after approx. 10 d, 0 to 100 scale, 0 no effect, 100 complete control
Description: as §1

Compound	Plant response rating, Galium
O=C(Nc1ccccc1C(F)(F)F)C1C(=O)OCC1c1cccc(C(F)(F)F)c1 (racemic) [Compound 14]	0

Same assay, conditions: 500 g ai/ha, visual rating after approx. 10 d, 0 to 100 scale, 0 no effect, 100 complete control

Compound	Plant response rating, Galium
O=C(Nc1ccccc1C(F)(F)F)C1C(=O)OCC1c1cccc(C(F)(F)F)c1 (racemic) [Compound 14]	30

System: ryegrass, Italian (Italian ryegrass, Lolium multiflorum)
Assay: Test A postemergence, Italian ryegrass
Assay type: in vivo
Conditions: 125 g ai/ha, visual rating after approx. 10 d, 0 to 100 scale, 0 no effect, 100 complete control
Description: as §1

Compound	Plant response rating, Ryegrass, Italian
O=C(Nc1ccccc1C(F)(F)F)C1C(=O)OCC1c1cccc(C(F)(F)F)c1 (racemic) [Compound 14]	0

Same assay, conditions: 500 g ai/ha, visual rating after approx. 10 d, 0 to 100 scale, 0 no effect, 100 complete control

Compound	Plant response rating, Ryegrass, Italian
O=C(Nc1ccccc1C(F)(F)F)C1C(=O)OCC1c1cccc(C(F)(F)F)c1 (racemic) [Compound 14]	0

System: ryegrass, Italian (Italian ryegrass, Lolium multiflorum)
Assay: Test A preemergence, Italian ryegrass
Assay type: in vivo
Conditions: 125 g ai/ha, visual rating after approx. 10 d, 0 to 100 scale, 0 no effect, 100 complete control
Description: as §1

Compound	Plant response rating, Ryegrass, Italian
O=C(Nc1ccccc1C(F)(F)F)C1C(=O)OCC1c1cccc(C(F)(F)F)c1 (racemic) [Compound 14]	0

Same assay, conditions: 500 g ai/ha, visual rating after approx. 10 d, 0 to 100 scale, 0 no effect, 100 complete control

Compound	Plant response rating, Ryegrass, Italian
O=C(Nc1ccccc1C(F)(F)F)C1C(=O)OCC1c1cccc(C(F)(F)F)c1 (racemic) [Compound 14]	20

System: corn (Zea mays)
Assay: Test A postemergence, corn
Assay type: in vivo
Conditions: 125 g ai/ha, visual rating after approx. 10 d, 0 to 100 scale, 0 no effect, 100 complete control
Description: as §1

Compound	Plant response rating, Corn
O=C(Nc1ccccc1C(F)(F)F)C1C(=O)OCC1c1cccc(C(F)(F)F)c1 (racemic) [Compound 14]	0

Same assay, conditions: 500 g ai/ha, visual rating after approx. 10 d, 0 to 100 scale, 0 no effect, 100 complete control

Compound	Plant response rating, Corn
O=C(Nc1ccccc1C(F)(F)F)C1C(=O)OCC1c1cccc(C(F)(F)F)c1 (racemic) [Compound 14]	0

System: barnyardgrass (Echinochloa crus-galli)
Assay: Test A preemergence, barnyardgrass
Assay type: in vivo
Conditions: 125 g ai/ha, visual rating after approx. 10 d, 0 to 100 scale, 0 no effect, 100 complete control
Description: as §1

Compound	Plant response rating, Barnyardgrass
O=C(Nc1ccccc1C(F)(F)F)C1C(=O)OCC1c1cccc(C(F)(F)F)c1 (racemic) [Compound 14]	20

Same assay, conditions: 500 g ai/ha, visual rating after approx. 10 d, 0 to 100 scale, 0 no effect, 100 complete control

Compound	Plant response rating, Barnyardgrass
O=C(Nc1ccccc1C(F)(F)F)C1C(=O)OCC1c1cccc(C(F)(F)F)c1 (racemic) [Compound 14]	20

System: barnyardgrass (Echinochloa crus-galli)
Assay: Test B flooded paddy test, barnyardgrass
Assay type: in vivo
Conditions: 500 g ai/ha; applied to paddy water at 2-leaf stage; 13 to 15 d; scale 0 no effect to 100 complete control
Experimental: (§2) Plant species in the flooded paddy test selected from rice (Oryza sativa), sedge, umbrella (small-flower umbrella sedge, Cyperus difformis), ducksalad (Heteranthera limosa), and barnyardgrass (Echinochloa crus-galli) were grown to the 2-leaf stage for testing. At time of treatment, test pots were flooded to 3 cm above the soil surface, treated by application of test compounds directly to the paddy water, and then maintained at that water depth for the duration of the test. Treated plants and controls were maintained in a greenhouse for 13 to 15 d, after which time all species were compared to controls and visually evaluated. Plant response ratings, summarized in Table B, are based on a scale of 0 to 100 where 0 is no effect and 100 is complete control. A dash (-) response means no test result.

Compound	Plant response rating, Flood, Barnyardgrass
O=C(Nc1ccccc1C(F)(F)F)C1C(=O)OCC1c1cccc(C(F)(F)F)c1 (racemic) [Compound 14]	0

System: sedge, umbrella (small-flower umbrella sedge, Cyperus difformis)
Assay: Test B flooded paddy test, umbrella sedge
Assay type: in vivo
Conditions: 500 g ai/ha; applied to paddy water at 2-leaf stage; 13 to 15 d; scale 0 no effect to 100 complete control
Experimental: as §2

Compound	Plant response rating, Flood, Sedge, Umbrella
O=C(Nc1ccccc1C(F)(F)F)C1C(=O)OCC1c1cccc(C(F)(F)F)c1 (racemic) [Compound 14]	0

System: barnyardgrass (Echinochloa crus-galli)
Assay: Test A postemergence, barnyardgrass
Assay type: in vivo
Conditions: 125 g ai/ha, visual rating after approx. 10 d, 0 to 100 scale, 0 no effect, 100 complete control
Description: as §1

Compound	Plant response rating, Barnyardgrass
O=C(Nc1ccccc1C(F)(F)F)C1C(=O)OCC1c1cccc(C(F)(F)F)c1 (racemic) [Compound 14]	0

Same assay, conditions: 500 g ai/ha, visual rating after approx. 10 d, 0 to 100 scale, 0 no effect, 100 complete control

Compound	Plant response rating, Barnyardgrass
O=C(Nc1ccccc1C(F)(F)F)C1C(=O)OCC1c1cccc(C(F)(F)F)c1 (racemic) [Compound 14]	20

System: kochia (Kochia scoparia)
Assay: Test A postemergence, kochia
Assay type: in vivo
Conditions: 125 g ai/ha, visual rating after approx. 10 d, 0 to 100 scale, 0 no effect, 100 complete control
Description: as §1

Compound	Plant response rating, Kochia
O=C(Nc1ccccc1C(F)(F)F)C1C(=O)OCC1c1cccc(C(F)(F)F)c1 (racemic) [Compound 14]	0

Same assay, conditions: 500 g ai/ha, visual rating after approx. 10 d, 0 to 100 scale, 0 no effect, 100 complete control

Compound	Plant response rating, Kochia
O=C(Nc1ccccc1C(F)(F)F)C1C(=O)OCC1c1cccc(C(F)(F)F)c1 (racemic) [Compound 14]	0

System: foxtail, giant (giant foxtail, Setaria faberii)
Assay: Test A postemergence, giant foxtail
Assay type: in vivo
Conditions: 125 g ai/ha, visual rating after approx. 10 d, 0 to 100 scale, 0 no effect, 100 complete control
Description: as §1

Compound	Plant response rating, Foxtail, Giant
O=C(Nc1ccccc1C(F)(F)F)C1C(=O)OCC1c1cccc(C(F)(F)F)c1 (racemic) [Compound 14]	20

Same assay, conditions: 500 g ai/ha, visual rating after approx. 10 d, 0 to 100 scale, 0 no effect, 100 complete control

Compound	Plant response rating, Foxtail, Giant
O=C(Nc1ccccc1C(F)(F)F)C1C(=O)OCC1c1cccc(C(F)(F)F)c1 (racemic) [Compound 14]	70

System: kochia (Kochia scoparia)
Assay: Test A preemergence, kochia
Assay type: in vivo
Conditions: 125 g ai/ha, visual rating after approx. 10 d, 0 to 100 scale, 0 no effect, 100 complete control
Description: as §1

Compound	Plant response rating, Kochia
O=C(Nc1ccccc1C(F)(F)F)C1C(=O)OCC1c1cccc(C(F)(F)F)c1 (racemic) [Compound 14]	0

Same assay, conditions: 500 g ai/ha, visual rating after approx. 10 d, 0 to 100 scale, 0 no effect, 100 complete control

Compound	Plant response rating, Kochia
O=C(Nc1ccccc1C(F)(F)F)C1C(=O)OCC1c1cccc(C(F)(F)F)c1 (racemic) [Compound 14]	20

System: pigweed (Amaranthus retroflexus)
Assay: Test A postemergence, pigweed
Assay type: in vivo
Conditions: 125 g ai/ha, visual rating after approx. 10 d, 0 to 100 scale, 0 no effect, 100 complete control
Description: as §1

Compound	Plant response rating, Pigweed
O=C(Nc1ccccc1C(F)(F)F)C1C(=O)OCC1c1cccc(C(F)(F)F)c1 (racemic) [Compound 14]	0

Same assay, conditions: 500 g ai/ha, visual rating after approx. 10 d, 0 to 100 scale, 0 no effect, 100 complete control

Compound	Plant response rating, Pigweed
O=C(Nc1ccccc1C(F)(F)F)C1C(=O)OCC1c1cccc(C(F)(F)F)c1 (racemic) [Compound 14]	0

System: foxtail, giant (giant foxtail, Setaria faberii)
Assay: Test A preemergence, giant foxtail
Assay type: in vivo
Conditions: 125 g ai/ha, visual rating after approx. 10 d, 0 to 100 scale, 0 no effect, 100 complete control
Description: as §1

Compound	Plant response rating, Foxtail, Giant
O=C(Nc1ccccc1C(F)(F)F)C1C(=O)OCC1c1cccc(C(F)(F)F)c1 (racemic) [Compound 14]	70

Same assay, conditions: 500 g ai/ha, visual rating after approx. 10 d, 0 to 100 scale, 0 no effect, 100 complete control

Compound	Plant response rating, Foxtail, Giant
O=C(Nc1ccccc1C(F)(F)F)C1C(=O)OCC1c1cccc(C(F)(F)F)c1 (racemic) [Compound 14]	90

System: ducksalad (Heteranthera limosa)
Assay: Test B flooded paddy test, ducksalad
Assay type: in vivo
Conditions: 500 g ai/ha; applied to paddy water at 2-leaf stage; 13 to 15 d; scale 0 no effect to 100 complete control
Experimental: as §2

Compound	Plant response rating, Flood, Ducksalad
O=C(Nc1ccccc1C(F)(F)F)C1C(=O)OCC1c1cccc(C(F)(F)F)c1 (racemic) [Compound 14]	0

System: ragweed (common ragweed, Ambrosia elatior)
Assay: Test A postemergence, ragweed
Assay type: in vivo
Conditions: 125 g ai/ha, visual rating after approx. 10 d, 0 to 100 scale, 0 no effect, 100 complete control
Description: as §1

Compound	Plant response rating, Ragweed
O=C(Nc1ccccc1C(F)(F)F)C1C(=O)OCC1c1cccc(C(F)(F)F)c1 (racemic) [Compound 14]	0

Same assay, conditions: 500 g ai/ha, visual rating after approx. 10 d, 0 to 100 scale, 0 no effect, 100 complete control

Compound	Plant response rating, Ragweed
O=C(Nc1ccccc1C(F)(F)F)C1C(=O)OCC1c1cccc(C(F)(F)F)c1 (racemic) [Compound 14]	0

System: pigweed (Amaranthus retroflexus)
Assay: Test A preemergence, pigweed
Assay type: in vivo
Conditions: 125 g ai/ha, visual rating after approx. 10 d, 0 to 100 scale, 0 no effect, 100 complete control
Description: as §1

Compound	Plant response rating, Pigweed
O=C(Nc1ccccc1C(F)(F)F)C1C(=O)OCC1c1cccc(C(F)(F)F)c1 (racemic) [Compound 14]	0

Same assay, conditions: 500 g ai/ha, visual rating after approx. 10 d, 0 to 100 scale, 0 no effect, 100 complete control

Compound	Plant response rating, Pigweed
O=C(Nc1ccccc1C(F)(F)F)C1C(=O)OCC1c1cccc(C(F)(F)F)c1 (racemic) [Compound 14]	0

System: rice (Oryza sativa)
Assay: Test B flooded paddy test, rice
Assay type: in vivo
Conditions: 500 g ai/ha; applied to paddy water at 2-leaf stage; 13 to 15 d; scale 0 no effect to 100 complete control
Experimental: as §2

Compound	Plant response rating, Flood, Rice
O=C(Nc1ccccc1C(F)(F)F)C1C(=O)OCC1c1cccc(C(F)(F)F)c1 (racemic) [Compound 14]	0

System: wheat (Triticum aestivum)
Assay: Test A postemergence, wheat
Assay type: in vivo
Conditions: 125 g ai/ha, visual rating after approx. 10 d, 0 to 100 scale, 0 no effect, 100 complete control
Description: as §1

Compound	Plant response rating, Wheat
O=C(Nc1ccccc1C(F)(F)F)C1C(=O)OCC1c1cccc(C(F)(F)F)c1 (racemic) [Compound 14]	0

Same assay, conditions: 500 g ai/ha, visual rating after approx. 10 d, 0 to 100 scale, 0 no effect, 100 complete control

Compound	Plant response rating, Wheat
O=C(Nc1ccccc1C(F)(F)F)C1C(=O)OCC1c1cccc(C(F)(F)F)c1 (racemic) [Compound 14]	0
